Drawing on the pKa sets of Baltruschat and Czodrowski (2020), this text covers pKa for 137 compounds.

Molecules are shown by their SMILES.

Usually pKa stands for the negative logarithm of the acid dissociation constant. High values mean a weaker acid or stronger base, low ones a stronger acid or weaker base.

The conditions of the first data set: acidic group.
`CCOC(=O)Cc1nc2ccccc2[nH]1`: the pKa amounted to 13.1. Still for that read-out and setting: then `C=C(OC)C(=O)O`, with 3.38.

Regarding `CN(C)c1ccc(C(=S)Nc2ccccc2)cc1`, the pKa was found to be 11.2.

The compound `O=S1(=O)Cc2cc(Br)ccc2N=CN1` registered a pKa of 9.3. In turn, `O=c1ccccc(O)c1[O-]` came in with a pKa of 11.5. The same measure, in the same setting: then `CC(O)C(C(=O)O)c1ccc(-c2ccccc2)cc1` (stereo not drawn), with 4.3; and `Cn1c(=S)[nH]c2cc3c(cc21)CCCC3`, with 10.8. `c1ccc([P+](c2ccccc2)(c2ccccc2)C2c3ccccc3-c3ccccc32)cc1` had a pKa of 8.99. As for `[O-]c1cccc2c1-c1c(O)cccc1-2`, the pKa is 11. On the same count and under the same terms, then `CCOc1cccc(C(=O)O)c1C`, with 3.73. The same measure, in the same setting: then `C[N+](C)(C)Cc1ccc(O)cc1`, with 8.75; and `Cc1cc(N(C)C)cc[n+]1O`, with 4.37; and `O=C(O)[C@H]1O[C@@H]1C(=O)O`, with 1.92. Still for that read-out and setting: then `c1ccc(-c2nnn[nH]2)cc1`, with 4.03; and `CC(C)CCC([NH3+])C(=O)O` (stereo not drawn), with 3.06. Take `O=C(O)[C@H]1C[C@@H]1c1ccc(Cl)cc1`: the pKa is 4.53. The compound `CC(C)C1NC(=S)NC1=O` (stereo not drawn) had a pKa of 8.7. On the same count and under the same terms, then `O=C(O)/C=C/c1cccc(O)c1`, with 4.4; and `N#CCC(C(=O)O)c1ccccc1` (stereo not drawn), with 3.44.

Compound `[O-]c1c(O)cccc1O` came in with a pKa of 11.2. On the same count and under the same terms, then `O=C(O)c1ccccc1-c1ccccc1`, with 3.46. The same measure, in the same setting: then `CC(=N\O)/C(CO)=N/[O-]`, with 12.1; and `O=C(Cc1ccccn1)c1ccccc1`, with 13.3.

In turn, `O=C(O)C1CCCOC1` (stereo not drawn) returned a pKa of 4.25. Still for that read-out and setting: then `CCc1ccc(C(=O)/C=C/C(=O)O)cc1`, with 3.38; and `C=CCc1ccc(O)c(OC)c1`, with 10.

For the compound `O=C(O)C1CCc2ccccc2O1` (stereo not drawn), the pKa is 3.38. Same read-out and setting: then `O=c1ccc2cc(O)c(O)cc2o1`, with 7.63; and `Cc1cc(Cl)ccc1C(=O)O`, with 3.75; and `CC(C)c1cc(O)c(=O)ccc1Br`, with 6.53. The same measure, in the same setting: then `O=[N+]([O-])c1[nH]cnc1Cl`, with 5.9; and `Cn1ncc2c(=O)[nH]cnc21`, with 9.26. On the same count and under the same terms, then `CC(C)c1ccc(Br)c(O)c(=O)c1`, with 6.28; and `S=c1[nH]c2ccccc2[nH]1`, with 10.2. Take `O=C([O-])c1cccc([N+](=O)[O-])c1O`: the pKa worked out at 10.3. Same read-out and setting: then `COc1cc(OC)nc(NS(=O)(=O)c2ccc(N)cc2)n1`, with 7.12; and `O=C(O)c1csc2ccccc12`, with 4.24; and `COC(=O)c1ccccc1-n1nc(O)cc1C`, with 12.3.

On to `O=c1cccccc1O`, for which the pKa amounted to 6.87. In turn, `O=C(O)Cn1c2ccccc2c2ccccc21` came in with a pKa of 3.55.

Take `Oc1ccc2c(c1)CCC2`: the pKa is 10.3. On the same count and under the same terms, then `O=[N+]([O-])c1cccc(S(=O)(=O)O)c1`, with -7.1; and `CC1(C)CC(=O)CC1=O`, with 4.2; and `CSc1nc2ncncc2[nH]1`, with 7.67.

With `O/N=C/c1ccc(O)cc1`, the pKa was determined as 8.78. On to `CN(C)c1nnn[nH]1`, for which the pKa came to 5.92. Still for that read-out and setting: then `O=C(Oc1cccc([N+](=O)[O-])c1)C1c2ccccc2-c2ccccc21`, with 9.84. For `Cc1ccc([C@H]2C[C@@H]2C(=O)O)cc1`, the pKa worked out at 4.6. On the same count and under the same terms, then `Cc1cc(O)n[nH]1`, with 10.9. On the same count and under the same terms, then `NC(=O)CCCCCCCCC(=O)NO`, with 9.49; and `CC(C)(C)c1cc([N+](=O)[O-])cc(C(C)(C)C)c1O`, with 6.92; and `Cc1cc(Cc2cc(O)ccc2C)c([O-])c([N+](=O)[O-])c1`, with 10.4. On the same count and under the same terms, then `O=C(O)CS/C=C/c1ccccc1`, with 3.5. As for `OCCCl`, the pKa came out at 14.4. The same measure, in the same setting: then `CCCCCOc1ccc(C(=O)O)cc1`, with 4.49; and `Oc1ccnc([Se-])[nH+]1`, with 7.18. The same measure, in the same setting: then `O=CCCCC(=O)O`, with 5.02. On the same count and under the same terms, then `CC(=O)C(=NO)C(C)=O`, with 7.44; and `Cc1cc(O)n(-c2nc(O)cc(C)[nH+]2)n1`, with 5.23; and `Oc1ccccc1-c1ccccc1`, with 9.99. `NC1=NS(=O)(=O)Nc2nc[nH]c21` registered a pKa of 4.28. Compound `C[N+](C)(C)Cc1ccccc1O` showed a pKa of 8.71. Compound `C[n+]1ccc(C(=O)O)cc1` returned a pKa of 1.72. `O=C(O)/C=C\c1ccc(O)cc1`: the pKa was found to be 4.08. Same read-out and setting: then `N#CC(C#N)=NNc1ccc(CCCl)cc1`, with 6.5.

Still in this data set, the particulars now being: basic group.
Compound `CCOC(=O)Cc1nc2ccccc2[nH]1` gave a pKa of 5.7.

As to `Cc1cnc2c(c1)c(C)c(C)c1cc(C)cnc12`, the pKa was determined as 5.54. Same read-out and setting: then `CN(C)CC(C)(C)CN`, with 10.1; and `NCCC[n+]1cc(Br)c2ccccc2c1`, with 9.53; and `CN(C)[C@H]1CCC[C@@H]1C#N`, with 7.02. Take `Nc1ccc2cc3ccc4ccccc4c3nc2c1`: the pKa came out at 6.72. Same read-out and setting: then `CCN(CC)CCOC(=O)c1ccc2ccccc2c1`, with 7.52; and `CN(C)c1ccc(/C=C/c2ccncc2)cc1`, with 6.25; and `CCN(CC)/N=C(\C)N`, with 10.6.

In the case of `CCC(N)CCCl` (stereo not drawn), the pKa worked out at 8.53. The compound `N#CCN1CCCCC1` yielded a pKa of 4.55. Same read-out and setting: then `CN1CC[NH2+]CC1`, with 5.05; and `C=CCCN1C[C@H]2C[C@@H](C1)c1cccc([O-])[n+]1C2`, with 7; and `CCCCCCCCCCNCc1ccc(C)cc1`, with 9.48. Same read-out and setting: then `Nc1ccc2[nH]c[nH+]c2c1`, with 3.07; and `NCCCC(=O)[O-]`, with 10.5; and `CC/C(N)=N/O`, with 5.95. In the case of `CCN(O)CC`, the pKa amounted to 5.62. Still for that read-out and setting: then `CC(C)N/C=N/c1ccc(-c2cn(C)cn2)cc1`, with 8.99; and `CCCCCCn1ccnc1`, with 7.2. The same measure, in the same setting: then `CC([NH3+])C/C(N)=N/O` (stereo not drawn), with 3.75; and `[O-][n+]1ccc2ccccc2c1`, with 1.01; and `Cn1cncc1C[C@H](N)C(=O)[O-]`, with 8.72.

Compound `CCN(CC)CCOCCN(CC)CC` gave a pKa of 10.1. In turn, `CC1(C)S[C@H]2[C@@H](NC(=O)Cc3ccc(N)cc3)C(=O)N2[C@@H]1C(=O)[O-]` showed a pKa of 4.6. In turn, `NCCC[Se-]` displayed a pKa of 11.3.

The compound `O=C(/C=C/c1c[nH]cn1)OCCCl` gave a pKa of 4.8. On the same count and under the same terms, then `c1ccc(N(CC2CO2)CC2CO2)cc1` (stereo not drawn), with -0.4; and `NCc1cccnc1`, with 8.33; and `O=C(Cc1ccccn1)c1ccccc1`, with 4.53. Same read-out and setting: then `CCc1ccc(N)cc1`, with 5.16. Same read-out and setting: then `O=[N+]([O-])c1ccc(-c2ncc(-c3ccccc3)o2)cc1`, with -0.61; and `CN(C)CCCN(C)C`, with 9.8; and `CC1(C)CC(=O)C(C)(C)N1`, with 7.1. Regarding `Cc1nc2cncnc2nc1C`, the pKa was 2.93.

`O=[N+]([O-])c1cnc([O-])[nH+]c1[O-]`: the pKa was determined as 5.42.

In the case of `CN1C[C@@H](C(=O)[O-])C[C@@]2(O)c3cccc4[nH]cc(c34)C[C@H]12`, the pKa was 9. Same read-out and setting: then `CSc1nc2cncnc2n1C`, with 2.98. Still for that read-out and setting: then `Cc1c(Cn2ccnc2)n(C)c2ccc(C(=O)[O-])cc12`, with 6.32; and `NC(=O)C(N)Cc1c[nH]c2ccccc12` (stereo not drawn), with 7.55; and `Cn1cc([O-])nc1N`, with 13.4.

`COC(=O)[C@@H]1[C@@H](O)C[C@H]2CC[C@@H]1N2C` displayed a pKa of 8.21.

`O=[N+]([O-])c1[nH]cnc1Cl`: the pKa is -1.3. Take `O=c1cccccc1`: the pKa was -0.82. In turn, `CCN(CC)CCNc1cc(Nc2ccc(Cl)cc2)nc(C)n1` came in with a pKa of 9.3. Still for that read-out and setting: then `CCOC(=O)c1cnc2cc([N+](=O)[O-])ccc2c1[O-]`, with 9.32.

Regarding `CCN(C)N(CC)CC`, the pKa stood at 7.3. As to `OC[C@H]1CCN2CCC[C@@H]12`, the pKa came out at 10.9.

In turn, `O=[N+]([O-])c1ccc2[nH]c(CO)nc2c1` gave a pKa of 2.21.

In turn, `Brc1ccc(-c2cnc(-c3ccccc3)o2)cc1` gave a pKa of 0.65. The same measure, in the same setting: then `N[C@@H]1C[C@@H]1N`, with 9.04. Still for that read-out and setting: then `Cc1ccc([C@@H](OCCN(C)C)c2ccccc2)cc1`, with 8.5. The same measure, in the same setting: then `C[NH+](C)CCNc1ccnc2cccc([N+](=O)[O-])c12`, with 5.77; and `CSc1nc2ncncc2[nH]1`, with 2.95. `CN(C)c1ccccc1`: the pKa worked out at 5.1.

`Clc1ccnc2c1ccc1c(Cl)ccnc12` showed a pKa of 3.03. Same read-out and setting: then `C[NH+](C)C[C@@H]1[C@@H](N)[C@]2(C)CC[C@@H]1C2(C)C`, with 7.5; and `N=C1CCCC1`, with 8.95. The same measure, in the same setting: then `C=C(C)C(=O)NCCN(C)C`, with 8.54; and `[NH3+]CCCCCc1ccncc1`, with 5.99; and `COC(=O)C1CCCN(C)C1` (stereo not drawn), with 8.45. With `CCCc1ncc[nH]1`, the pKa came to 8.02. The same measure, in the same setting: then `C[NH2+]CCN(C)CCN`, with 9.68; and `Nc1nc([O-])c2ncn([C@H]3O[C@@H](CO)[C@H](O)[C@@H]3O)c2n1`, with 9.41. Same read-out and setting: then `Cc1cc(-c2ccccc2)n[n+](C)c1NCCN1CCOCC1`, with 5.12; and `Nc1ccc(-c2ncc(-c3ccc(Cl)cc3)o2)cc1`, with 2.87.

On to `Cc1nn(C)c(N(C)C(=O)CN)c1C(=O)c1ccccc1F`, for which the pKa was 7.52.

In turn, `CN(C)N` yielded a pKa of 7.16.

The compound `O=P([O-])([O-])C(NCc1cccnc1)c1ccccc1[O-]` (stereo not drawn) had a pKa of 12.2.

As for `CC(C)(C)c1cc(O)[nH]n1`, the pKa came out at 2.9. On the same count and under the same terms, then `CCN(CC)CC(O)C[NH+](CC)CC`, with 7.74; and `CC(C)N(C)C`, with 10.3. Same read-out and setting: then `NNc1nncc2ccccc12`, with 7.25.

Compound `NC1=NS(=O)(=O)Nc2nc[nH]c21` yielded a pKa of 0.28. On the same count and under the same terms, then `Cc1c(N)ccc2c1-c1c(ccc3ccccc13)C2`, with 4.49; and `CCC(C)(N)CC`, with 10.9; and `N#CC(C#N)=NNc1ccc(CCCl)cc1`, with -0.81.

Regarding `C1CCN(CC[NH+]2CCCCC2)CC1`, the pKa came out at 6.12.
